Measurements reported in patent US20160340327A1, “PROCESS FOR PREPARING AMORPHOUS CABAZITAXEL” (SHILPA MEDICARE LIMITED, priority 2012, published 2016).

Assays:
[1] = Storage stability of the solid form; format: physicochemical; settings: storage for longer time; no conditions or data printed
[2] = description from the drug label; cited from earlier work

stability on handling and storage (morphology and physicochemical characteristics) [1]	SMILES	solubility in water [2]
quite stable	CO[C@H]1C(=O)[C@@]2(C)C([C@H](OC(=O)c3ccccc3)[C@]3(O)C[C@H](OC(=O)[C@H](O)[C@H](NC(=O)OC(C)(C)C)c4ccccc4)C(C)=C1C3(C)C)[C@]1(OC(C)=O)CO[C@@H]1C[C@@H]2OC (some centres unmarked)	
	CO[C@H]1C(=O)[C@]2(C)[C@@H](OC)C[C@H]3OC[C@@]3(OC(C)=O)[C@H]2[C@H](OC(=O)c2ccccc2)[C@]2(O)C[C@H](OC(=O)[C@H](O)[C@@H](NC(=O)OC(C)(C)C)c3ccccc3)C(C)=C1C2(C)C [Cabazitaxel, (2α,5β,7β,10β,13α)-4-acetoxy-13-({(2R,3S)-3[(tert-butoxycarbonyl)amino]-2-hydroxy-3-phenylpropanoyl}oxy)-1-hydroxy-7,10-dimethoxy-9-oxo-5,20-epoxytax-11-en-2-yl benzoate]	practically insoluble in water
